The test system of assay [1] is Cryptococcus neoformans. In words: Broth microdilution susceptibility assay, Cryptococcus neoformans. The assay is classed as cell-based. The following applies: Table 4, read-out: Range of minimum inhibitory concentration.
The test system of assay [2] is Candida albicans. In words: Broth microdilution susceptibility assay, Candida albicans. In kind it is cell-based. The following applies: Table 4, read-out: Range of minimum inhibitory concentration. In general terms: Dilution methods test growth across graded concentrations, often in twofold steps.
The test system of assay [3] is Staphylococcus aureus. The assay can be described thus: Broth microdilution susceptibility assay, Staphylococcus aureus. The assay is classed as cell-based. The following applies: Table 4, read-out: Range of minimum inhibitory concentration.
The subject of assay [4] is Streptococcus pneumoniae. The assay can be described thus: Broth microdilution susceptibility assay, Streptococcus pneumoniae. In kind it is cell-based. The following applies: Table 4, read-out: Range of minimum inhibitory concentration.
Assay [5] concerns Enterococcus faecalis. In words: Broth microdilution susceptibility assay, Enterococcus faecalis. The assay is classed as cell-based. The following applies: Table 4, read-out: Range of minimum inhibitory concentration.
Assay [6] deals with Micrococcus luteus. The assay can be described thus: Broth microdilution susceptibility assay, Micrococcus luteus. The assay is classed as cell-based. The following applies: Table 4, read-out: Range of minimum inhibitory concentration.
Assay [7] has as its system Escherichia coli. The assay can be described thus: Broth microdilution susceptibility assay, Escherichia coli. The assay is classed as cell-based. The following applies: Table 4, read-out: Range of minimum inhibitory concentration.
For assay [8], the system named is Enterobacter cloacae. In words: Broth microdilution susceptibility assay, Enterobacter cloacae. In kind it is cell-based. The following applies: Table 4, read-out: Range of minimum inhibitory concentration.
In assay [9] the test system is Stenotrophomonas maltophilia. The assay can be described thus: Broth microdilution susceptibility assay, Stenotrophomonas maltophilia. The assay is classed as cell-based. The following applies: Table 4, Stenotrophomonas maltophil, read-out: Range of minimum inhibitory concentration.
Assay [10] concerns Neisseria gonorrhoeae. In words: Broth microdilution susceptibility assay, Neisseria gonorrhoeae. The assay is classed as cell-based. The following applies: Table 4, read-out: Range of minimum inhibitory concentration.
Assay [11] concerns murine P388 lymphocytic leukemia cell line and a selection of human cancer cell lines. In words: Cancer cell growth inhibition, P388 and human cancer cell line panel (summary in words). In kind it is cell-based. From the text: (§1) Biology The cancer cell growth inhibitory properties were examined using the murine P388 lymphocytic leukemia cell line and a selection of human cancer cell lines.

In assay [12] the test system is murine P388 lymphocytic leukemia cell line. In words: Cancer cell growth inhibition, murine P388 lymphocytic leukemia cell line. The assay is classed as cell-based. The following applies: Mus musculus, P388; Table 3; leukemia P-388; read-out: Cancer cell growth inhibitory ED50. An outline of the steps:
(§2)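 Growth inhibition in murine P388 leukemia and human cancer cell line panels (Arizona State University minipanel and NCI 60-cell screen).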

The subject of assay [13] is lung NCI-H460. In words: Cancer cell growth inhibition, lung NCI-H460. The assay is classed as cell-based, human. The following applies: Homo sapiens; Table 3; lung NCI-H460; read-out: Cancer cell growth inhibitory ED50. Summed up:
as §2

The test system of assay [14] is colon KM 20L2. In words: Cancer cell growth inhibition, colon KM 20L2. In kind it is cell-based, human. The following applies: Homo sapiens; Table 3; colon KM 20L2; read-out: Cancer cell growth inhibitory ED50. An outline of the steps: as §2
Assay [15] deals with pancreas BXPC-3. The assay can be described thus: Cancer cell growth inhibition, pancreas BXPC-3. The assay is classed as cell-based, human. The following applies: Homo sapiens; Table 3; pancreas BXPC-3; read-out: Cancer cell growth inhibitory ED50. Here is the method:
as §1
(§3) All of the synthetic products were evaluated against a minipanel of human cancer cell lines, the murine P388 lymphocytic leukemia cell line and a selection of microorganisms.

Assay [16] concerns breast MCF-7. The assay can be described thus: Cancer cell growth inhibition, breast MCF-7. In kind it is cell-based, human. The following applies: Homo sapiens, MCF7; Table 3; breast MCF-7; read-out: Cancer cell growth inhibitory ED50. On the procedure: as §1, §3
In assay [17] the test system is CNS SF-268. In words: Cancer cell growth inhibition, CNS SF-268. In kind it is cell-based, human. The following applies: Homo sapiens; Table 3; CNS SF-268; read-out: Cancer cell growth inhibitory ED50. On the procedure:
as §1, §3

Assay [18] deals with prostrate DU-145. The assay can be described thus: Cancer cell growth inhibition, prostate DU-145. The assay is classed as cell-based, human. The following applies: Homo sapiens; Table 3; prostrate DU-145; read-out: Cancer cell growth inhibitory ED50. On the procedure: as §1, §3
A short description of assay [19]: Antimicrobial activity in the presence of human serum. In kind it is cell-based. An excerpt:
The antimicrobial activity of phenols 15 and 18 in the presence of human serum was also investigated.

Each structure is given as a SMILES string. Converted amounts (≈) assume the structure as drawn. Structures can show the parent of a compound that is named as a salt.

For the compound `COc1cc2ccnc3c2c(c1OC)N(C)C=C3` [Compound 14, 1-Methyl-8,9-dimethoxy-1H-benzo[de][1,6]naphthyridine trifluoromethane-sulfonate], the MIC in [1] was above 64 µg/mL; in assay [2], above 64 µg/mL; in [3], above 64 µg/mL; in assay [4], 64 µg/mL (≈ 264 µM); in assay [5], above 64 µg/mL; in [6] it was above 64 µg/mL. Moreover, the MIC in assay [7], in assay [8], in [9] and in assay [10] was above 64 µg/mL each time. In [11], the “cancer cell growth inhibitory activity” value is given as “marginal activity”.
Turning to `CN1C=Cc2cc(O)c(O)c3nccc1c23` [Compound 7, 4-Methyl-8,9-dihydroxy-4H-benzo[de][1,6]naphthyridine], the IC50 in [12] was 2.2 µg/mL (≈ 10.3 µM); in assay [13], above 10 µg/mL; in [14], above 10 µg/mL; in [15] it was above 10 µg/mL; in assay [16], 4.1 µg/mL (≈ 19.1 µM); in assay [17], 5.6 µg/mL (≈ 26.1 µM). Besides, the IC50 in assay [18] was above 10 µg/mL. In addition, the MIC in assay [1], in assay [2], in assay [3], in assay [4], in assay [5] and in assay [6] was above 64 µg/mL in each case. The MIC in [7] is above 64 µg/mL; in assay [8] it was above 64 µg/mL; in [9], above 64 µg/mL; in assay [10] it was 64 µg/mL (≈ 299 µM). Further, in assay [11], the “cancer cell growth inhibitory activity” value is “marginal activity”.
As for `Oc1cc2ccnc3c2c(c1O)NC=C3` [Compound 15, 8,9-Dihydroxy-1H-Benzo[de][1,6]naphthyridine hydrobromide], the IC50 in [12] stood at 0.12 µg/mL; in assay [13], 0.52 µg/mL; in assay [14] it was 0.3 µg/mL; in assay [15] it was 0.33 µg/mL; in assay [16], 0.31 µg/mL; in assay [17], 0.8 µg/mL. The IC50 in assay [18] came to 1.1 µg/mL. The MIC in [1] was 32 µg/mL; in assay [2], 64 µg/mL; in assay [3], 4 to 8 µg/mL; in assay [4] it was 8 µg/mL; in assay [5], 8 to 16 µg/mL; in [6], 4 µg/mL. In addition, the MIC in [7] was 16 to 64 µg/mL; in assay [8], above 64 µg/mL; in [9], 32 µg/mL; in assay [10], above 0.5 µg/mL. For the same compound, in assay [19], the “minimum inhibitory concentrations in the presence of human serum versus absence of serum” value is “identical or one 2-fold dilution lower”.
